This note sets out measurements from patent US7208466B1 (priority 1999, dated 2007).

Molecules are shown by their SMILES.

This test has as its system mice. The settings on record: mouse, in vivo.

In the case of `CN1CC[C@]23c4c5ccc(O)c4O[C@H]2[C@@H](O)C=C[C@H]3[C@H]1C5` [morphine], the “period over which effect declines / returns to control levels” value came to 5 h and the “time of maximal effect” value was found to be 1 h.
